# Source: US5534533A, “Carboxylate derivatives exhibiting phospholipase A2 inhibitory activity” (Shionogi & Co., Ltd., priority 1993, dated 1996)
# Tests used:
# Human secretory PLA2 = target: T1, Human secretory PLA2 (Homo sapiens, UniProt P14555); assay: Secretory PLA2 inhibitory activity (diheptanoyl thio PC substrate, absorbance at 405 nm); format: biochemical; conditions: diheptanoyl thio PC 1 mM, Triton X100 0.3 mM, pH 7.3, CaCl2 10 mM, 30 minutes, read-out: s-PLA2 Inhibition IC50
# T1 sequence (P14555 21-144): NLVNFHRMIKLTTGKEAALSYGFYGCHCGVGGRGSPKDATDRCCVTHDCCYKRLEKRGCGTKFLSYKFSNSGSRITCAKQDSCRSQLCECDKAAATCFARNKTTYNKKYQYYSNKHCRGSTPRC
# Description: Secretory PLA2 activity was assayed according to the method described in Penynolds L. J., Hughes L. L., Dennis E. A. et al. Anal. Biochem. 201,190-197 (1992).
# Diheptanoyl thiophosphatidylcholine which was prepared according to the procedure described in the literature was used as a substrate. Human secretory PLA2 was used as an enzyme. The diheptanoyl thio PC (1 mM) was reacted with the human secretory PLA2 in the presence of Triton X100 (0.3 mM) and 5,5'-dithiobis-(2-nitrobenzoic acid) (125 μM) in Tris buffer (25 mM, pH 7.3), CaCl2 (10 mM), KCI (100 mM), bovine serum albumin (1.0 mg/ml), and then the change in absorbance at 405 nm at the time of 30 minutes after the reaction was assayed.
# Inhibitory activity (%) was estimated by the formula: [(the change in absorbance with the inhibitor and PLA2 ·the change in absorbance with the inhibitor and without PLA2)/(the change in absorbance without the inhibitor and with PLA2 ·the change in absorbance without the inhibitor and PLA2)]×100.
# IC50 value (μM) was calculated from graph showing inhibitory values on the vertical axis and log of concentrations of the inhibitor on the horizontal axis.
# [1] = target: T2, intracellular PLA2 (cytosolic PLA2, cPLA2) (Homo sapiens, UniProt P47712); assay: Intracellular PLA2 (cPLA2) inhibitory activity (14C-arachidonyl phosphatidylcholine substrate); format: biochemical; conditions: 2 μM radiolabelled phosphatidylcholine, 1 μM dioleoylglycerol, 1 mM CaCl2, pH 7.4; read-out: c-PLA2 Inhibition IC50
# T2 sequence (P47712 1-749): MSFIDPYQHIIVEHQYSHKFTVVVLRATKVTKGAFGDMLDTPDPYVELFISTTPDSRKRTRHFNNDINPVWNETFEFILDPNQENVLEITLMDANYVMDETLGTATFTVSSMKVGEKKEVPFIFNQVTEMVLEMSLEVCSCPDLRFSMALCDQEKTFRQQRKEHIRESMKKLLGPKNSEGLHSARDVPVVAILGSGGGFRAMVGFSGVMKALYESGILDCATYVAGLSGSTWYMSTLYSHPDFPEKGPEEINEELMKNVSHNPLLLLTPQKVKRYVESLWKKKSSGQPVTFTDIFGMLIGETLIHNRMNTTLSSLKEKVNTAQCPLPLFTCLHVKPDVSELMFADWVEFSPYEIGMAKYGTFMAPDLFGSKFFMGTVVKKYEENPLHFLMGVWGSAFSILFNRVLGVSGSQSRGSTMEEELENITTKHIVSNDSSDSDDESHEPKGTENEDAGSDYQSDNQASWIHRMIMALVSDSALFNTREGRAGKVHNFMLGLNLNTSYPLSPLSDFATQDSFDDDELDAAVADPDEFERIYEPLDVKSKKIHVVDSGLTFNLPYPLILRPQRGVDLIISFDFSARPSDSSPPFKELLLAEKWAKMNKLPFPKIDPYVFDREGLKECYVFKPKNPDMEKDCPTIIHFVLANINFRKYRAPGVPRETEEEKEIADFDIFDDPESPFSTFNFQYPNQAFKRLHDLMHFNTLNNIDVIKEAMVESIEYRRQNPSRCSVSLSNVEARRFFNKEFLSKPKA
# Description: cPLA2 activity was assayed according to the method described in R. M. Kramer, E. F. Roberts, J. Manetta and J. E. Putnam, J. Biol. Chem., 268 (8), 5268-5272 (1991). Briefly, intracellular PLA2 activity was assayed using supersonic treated […] which contain 1-palmitoyl-2-[^14 C]arachidonyl-sn-glycero-3-phosphocholine and sn-1, 2-dioleoylglycerol at a molar ratio of 2:1. This test mixture contained 1 mM CaCl2, 2 mM dithiothreitol, 150 mM NaCl, 50 mM Hepes, pH 7.4 and 0.1 mg/ml BSA. A substrate is a 2 μM radioisotope labelled phosphatidylcholine ribosome containing 1 μM dioleoylglycerol. IC50 value is calculating in the same manner as in calculating it for secretory PLA2 inhibitory activity.
Compound,IC50 (Human secretory PLA2) [µM],IC50 [1] [µM]
"COc1c(C)c(OC(=O)c2c(C)c(C)c(OCCCOc3ccc(Cl)cc3Cl)c(C)c2OC)c(C)c(C)c1C(=O)O [Example 24, 4-{4-[3-(2,4-Dichlorophenoxy)propoxy]-2-methoxy-3,5,6-trimethylbenzoyloxy}-2-methoxy-3,5,6-trimethylbenzoic Acid]",12,2.8
"COc1c(C)c(OC(=O)c2c(C)c(C)c(OCCCOc3ccc(Br)cc3Br)c(C)c2OC)c(C)c(C)c1C(=O)O [Example 26, 4-{4-[3-(2,4-Dibromophenoxy)propoxy]-2-methoxy-3,5,6-trimethylbenzoyloxy}-2-methoxy-3,5,6-trimethylbenzoic Acid]",15,2.6
"COc1c(C)c(OC(=O)c2c(C)c(C)c(OCCCOc3cc4c(cc3C(c3ccccc3)c3ccccc3)OCO4)c(C)c2OC)c(C)c(C)c1C(=O)O [Example 27, 4-{4-[3-(6-Benzhydrylbenzo[1, 3]dioxol-5-yloxy)-propoxy]-2-methoxy-3,5,6-trimethylbenzoyloxy}-2-methoxy-3,5,6-trimethylbenzoic Acid]",13,1.5
"COc1c(C)c(OC(=O)c2c(C)c(C)c(OCCCOc3ccc4c(c3)OCO4)c(C)c2OC)c(C)c(C)c1C(=O)O [Example 28, 4-{4-[3-(Benzo[1, 3]dioxol-5-yloxy)propoxy]-2-methoxy-3,5,6-trimethylbenzoyloxy}-2-methoxy-3,5,6-trimethylbenzoic Acid]",6.9,10
"CCc1ccc(OCCCOc2c(C)c(C)c(C(=O)Oc3c(C)c(C)c(C(=O)O)c(OC)c3C)c(OC)c2C)cc1 [Example 30, 4-{4-[3-(4-Ethylphenoxy)propoxy]-2-methoxy-3,5,6-trimethylbenzoyloxy}-2-methoxy-3,5,6-trimethylbenzoic Acid]",16,5.4
"COc1c(C)c(OC(=O)c2c(C)c(C)c(OCCCOc3ccc(C(C)=O)cc3)c(C)c2OC)c(C)c(C)c1C(=O)O [Example 31, 4-{4-[3-(4-Acetylphenoxy)propoxy]-2-methoxy-3,5,6-trimethylbenzoyloxy}-2-methoxy-3,5,6-trimethylbenzoic Acid]",7,24
"COc1c(C)c(OC(=O)c2c(C)c(C)c(OCCCOc3ccc(C(=O)O)cc3)c(C)c2OC)c(C)c(C)c1C(=O)O [Example 32, 4-{4-[3-(4-Carboxyphenoxy)propoxy]-2-methoxy-3,5,6-trimethylbenzoyloxy}-2-methoxy-3,5,6-trimethylbenzoic Acid]",10,38
"COc1c(C)c(OC(=O)c2c(C)c(C)c(OCCCOc3ccccc3F)c(C)c2OC)c(C)c(C)c1C(=O)O [Example 33, 4-{4-[3-(2-Fluorophenoxy)propoxy]-2-methoxy-3,5,6-trimethylbenzoyloxy}-2-methoxy-3,5,6-trimethylbenzoic Acid]",26,12
"COc1c(C)c(OC(=O)c2c(C)c(C)c(OCCCOc3cccc(F)c3)c(C)c2OC)c(C)c(C)c1C(=O)O [Example 34, 4-{4-[3-(3-Fluorophenoxy)propoxy]-2-methoxy-3,5,6-trimethylbenzoyloxy}-2-methoxy-3,5,6-trimethylbenzoic Acid]",50,9.7
"COc1c(C)c(OC(=O)c2c(C)c(C)c(OCCCS(=O)(=O)c3ccc(F)cc3)c(C)c2OC)c(C)c(C)c1C(=O)O [Example 36, 4-{4-[3-(4-Fluorobenzenesulfonyl)propoxy]-2-methoxy-3,5,6-trimethylbenzoyloxy}-2-methoxy-3,5,6-trimethylbenzoic Acid]",50,> 50
"COc1c(C)c(OC(=O)c2c(C)c(C)c(OCCCOc3cccc(F)c3F)c(C)c2OC)c(C)c(C)c1C(=O)O [Example 37, 4-{4-[3-(2,3-Difluorophenoxy)propoxy]-2-methoxy-3,5,6-trimethylbenzoyloxy}-2-methoxy-3,5,6-trimethylbenzoic Acid]",12,6.6
"COc1c(C)c(OC(=O)c2c(C)c(C)c(OCCCOc3c(F)cccc3F)c(C)c2OC)c(C)c(C)c1C(=O)O [Example 38, 4-{4-[3-(2,6-Difluorophenoxy)propoxy]-2-methoxy-3,5,6-trimethylbenzoyloxy}-2-methoxy-3,5,6-trimethylbenzoic Acid]",6.7,7.1
"COc1ccccc1OCCCOc1c(C)c(C)c(C(=O)Oc2c(C)c(C)c(C(=O)O)c(OC)c2C)c(OC)c1C [Example 39, 4-{4-[3-(2-Methoxyphenoxy)propoxy]-2-methoxy-3,5,6-trimethylbenzoyloxy}-2-methoxy-3,5,6-trimethylbenzoic Acid]",8.9,12
"COc1cccc(OC)c1OCCCOc1c(C)c(C)c(C(=O)Oc2c(C)c(C)c(C(=O)O)c(OC)c2C)c(OC)c1C [Example 40, 4-{4-[3-(2,6-Dimethoxyphenoxy)propoxy]-2-methoxy-3,5,6-trimethylbenzoyloxy}-2-methoxy-3,5,6-trimethylbenzoic Acid]",6.1,13
"COc1cc(OC)cc(OCCCOc2c(C)c(C)c(C(=O)Oc3c(C)c(C)c(C(=O)O)c(OC)c3C)c(OC)c2C)c1 [Example 41, 4-{4-[3-(3,5-Dimethoxyphenoxy)propoxy]-2-methoxy-3,5,6-trimethylbenzoyloxy}-2-methoxy-3,5,6-trimethylbenzoic Acid]",7,5.9
"COc1c(C)c(OC(=O)c2c(C)c(C)c(OCCCOc3ccc(C(N)=O)cc3)c(C)c2OC)c(C)c(C)c1C(=O)O [Example 42, 4-{4-[3-(4-Carbamoylphenoxy)propoxy]-2-methoxy-3,5,6-trimethylbenzoyloxy}-2-methoxy-3,5,6-trimethylbenzoic Acid]",5,31
"COC(=O)c1ccc(OCCCOc2c(C)c(C)c(C(=O)Oc3c(C)c(C)c(C(=O)O)c(OC)c3C)c(OC)c2C)cc1 [Example 43, 4-{4-[3-(4-Methoxycarbonylphenoxy)propoxy]-2-methoxy-3,5,6-trimethylbenzoyloxy}-2-methoxy-3,5,6 trimethylbenzoic Acid]",5.1,14
"COc1c(C)c(OC(=O)c2c(C)c(C)c(OCCCOc3ccc(F)cc3)c(C)c2OC)c(C)c(C)c1C(N)=O [Example 44, 4-{4-[3-(4-Fluorophenoxy)propoxy]-2-methoxy-3,5,6-trimethylbenzoyloxy}-2-methoxy-3,5,6-trimethylbenzamide]",0.94,9.3
"COc1c(C)c(OC(=O)c2c(C)c(C)c(OCCCOc3ccc(C(N)=O)cc3)c(C)c2OC)c(C)c(C)c1C(N)=O [Example 45, 4-{4-[3-(4-Carbamoylphenoxy)propoxy]-2-methoxy-3,5,6-trimethylbenzoyloxy}-2-methoxy-3,5,6-trimethylbenzamide]",0.29,> 50
"COC(=O)c1ccc(OCCCOc2c(C)c(C)c(C(=O)Oc3c(C)c(C)c(C(N)=O)c(OC)c3C)c(OC)c2C)cc1 [Example 46, 4-{4-[3-(4-Methoxycarbonylphenoxy)propoxy]-2methoxy-3,5,6-trimethylbenzoyloxy}-2-methoxy-3,5,6 trimethylbenzamide]",0.74,> 50
"COc1c(C)c(OC(=O)c2c(C)c(C)c(OCCCOc3ccc(C(=O)O)cc3)c(C)c2OC)c(C)c(C)c1C(N)=O [Example 47, 4-{4-[3-(4-Carboxyphenoxy)propoxy]-2-methoxy-3,5,6-trimethylbenzoyloxy}-2-methoxy-3,5,6-trimethylbenzamide]",0.22,22
